Measured values as given in patent US20230060350A1, “BACTERICIDAL COMPOSITION FOR CONTROLLING GUMMY STEM BLIGHT OF MELONS” (Institute of Plant Protection and Agro-products Safety, …, priority 2022, published 2023).

Tests used:
[1] = test system: Stagonosporopsis cucurbitacearum; assay: Indoor toxicity test, hypha growth assay on drug-containing PDA plates; assay type: cell-based; conditions: hypha growth inhibition, 25° C.
Procedure: Embodiment 1 Indoor toxicity test of Pydiflumetofen and the Thifluzamide on Stagonosporopsis cucurbitacearum
Bactericidal properties of the Pydiflumetofen and the Thifluzamide were analyzed in detail. EC50 […] of two single components such as the Pydiflumetofen and the Thifluzamide (hereinafter referred to as agents) was tested first; a combination ratio of the two agents was set by a Wadley method according to the EC50 of the two single agents, and according to a Wadley synergistic coefficient SR value.
A test object was Stagonosporopsis cucurbitacearum of melons, but was not limited herein. […] Hypha growth assay was adopted during the test; drug containing media were prepared according to different treatments; hypha blocks having a diameter of 5 mm were prepared on the edges of the pre-culture colonies by using the sterilized puncher and respectively transferred onto medium plates with different drug content; a colony diameter was tested by a crossing method; the colony diameter (mm) was measured; and a growth inhibition ratio was calculated by the following formula: […]
Interaction of the mixture was evaluated according to the Wadley method; and a calculation formula was as follows: […]
In the formula, a and b were content ratios of various components in the mixture; and a mixing effect was analyzed based on the value SR.

[2] = test system: gummy stem blight of Trichosanthes kirilowii maxim; assay: Field control experiment on gummy stem blight of Trichosanthes kirilowii maxim; assay type: in vivo
Text: Embodiment 3: Field Control Experiment of Pydiflumetofen and the Thifluzamide on Gummy Stem Blight of Trichosanthes kirilowii maxim
Control tests of gummy stem blight of Trichosanthes kirilowii maxim were respectively conducted in 2020 and 2021. Test data in 2021 were collected as follows: the 20% Pydiflumetofen·Thifluzamide suspension, 20% Pydiflumetofen suspension, 30% Thifluzamide suspension and 25% Azoxystrobin suspension in embodiment 2 were respectively used in the experiment. The variety of the tested Trichosanthes kirilowii maxim was “Wanlou 9”; the test location was a Trichosanthes kirilowii maxim field in Gangji experimental production base in Anhui Academy of Agricultural Sciences; water consumption per mu was 30 kg; the Trichosanthes kirilowii maxim was subjected to agent control at an early stage of growing and flowering (May 20); and disease condition survey was conducted within 30 days (Table 2).

[3] = test system: gummy stem blight of the watermelon; assay: Greenhouse control experiment on gummy stem blight of watermelon; assay type: in vivo
Text: Embodiment 4: Field Control Experiment of Pydiflumetofen and the Thifluzamide on Gummy Stem Blight of Watermelon Control tests of gummy stem blight of watermelons were respectively conducted in 2020 and 2021. Test data in 2021 were collected as follows: the 18% Pydiflumetofen·Thifluzamide water dispersible granules, 20% Pydiflumetofen suspension, 30% Thifluzamide suspension and 25% Azoxystrobin suspension in embodiment 1 were respectively used in the experiment. The variety of the tested watermelon was “Zaojia 8424”; the test location was a watermelon greenhouse in Gangji experimental production base in Anhui Academy of Agricultural Sciences; water consumption per mu was 30 kg; the watermelons were subjected to agent control for the first time within 30 days after field planting of watermelon seedlings, and then subjected to agent control for the second time within 10 days after the first control; and disease condition survey was conducted within 30 days after the second agent control (Table 3).

Row | Structure (SMILES) | EC50 [1] [ppm] | Control effect (in words) [2] | Control effect (in words) [3]
1 | Cc1nc(C(F)(F)F)c(C(=O)Nc2c(Br)cc(OC(F)(F)F)cc2Br)s1 [Thifluzamide] | 0.0451 | significant control effects | significant control effects
2 | CON(C(=O)c1cn(C)nc1C(F)F)C(C)Cc1c(Cl)cc(Cl)cc1Cl (racemic) [Pydiflumetofen, 3-(difluoromethyl)-N-methoxy-1-methyl-N-[(RS)-1-methyl-2-(2,4,6-trichlorophenyl)ethyl]pyrazol-4-formamide] | 0.0109 | significant control effects | significant control effects
